# Results taken from PMC9386913 (Arthritis Research & Therapy, 2022).
# Where two headings read alike, the source gives them in different places.
# What was measured:
# [1] = Plasma pharmacokinetics in MAD study (LC-MS/MS); type: in vivo, human (healthy volunteers); conditions: for Cmax: human, plasma
# Protocol: PK parameters were calculated via non-compartmental methodology using Phoenix version 7 or higher (Princeton, NJ).
# [2] = test system: LPS-stimulated whole blood; experiment: Ex vivo LPS-stimulated whole blood cytokine/chemokine production (TruCulture) in dosed subjects; parameters: species or system human (healthy volunteers)
# Protocol: Briefly, blood (1 mL) was drawn into the LPS-containing TruCulture tubes. The tubes were placed in a 37 °C block thermostat for 24 ± 1 h and then frozen at −70 °C. Media mixed with plasma were analyzed for TNF and other cytokine/chemokine levels. TNF inhibition in ex vivo LPS-stimulated blood was measured as a percentage change in TNF levels from baseline. Percentage change in other cytokines and chemokines in the ex vivo stimulation assay was also measured with respect to their baseline levels.
# [3] = test system: SEB/IL-2-stimulated PBMCs; experiment: Cytokine production in SEB/IL-2-stimulated PBMCs; type: cell-based, human; conditions: PBMCs from healthy donors and AS patients, SEB + IL-2 72 h
# [4] = test system: TNF, IL-6, and IL-1β transcripts; experiment: Cytokine mRNA decay in LPS-stimulated macrophages with actinomycin D; type: cell-based, human; conditions: 1 μM CC-99677 with 10 μg/mL actinomycin D, normalized to GAPDH
# Description: After each time point, macrophages were washed with PBS and lysed with RLT Plus Lysis Buffer (Qiagen, Germantown, MD). RNA was isolated using the QiaCube, followed by cDNA preparation using Superscript IV enzyme mix (Invitrogen, Thermo Fisher, Waltham, MA).
# LPS-stimulated PBMCs = conditions: cited from earlier work
# [5] = Peripheral blood leukocyte and subtype counts in MAD study; conditions: 150 mg, pre-dose baseline through 14-day dosing (n = 5)
# THP-1 cells = experiment: In vitro tachyphylaxis model: daily treatment of THP-1 cells, LPS-stimulated TNF; conditions: up to 14 days, 0.1 or 1 μM CC-99677 or 1 μM p38 inhibitors
# [6] = 150-mg dose level cohort, day 5
# [7] = continuous dosing at 120 and 150 mg
smiles,measurement,setting,value
CCOCc1cnc(Cl)nc1Oc1ccc2c(ccc3sc4c(c32)NC[C@@H](C)NC4=O)n1 [CC-99677],Dose proportionality of concentration and exposure,[1]; 10 to 150 mg once daily over 14 days,"linear, dose-proportional increase in concentration and exposure"
same,Day-to-day plasma accumulation,"[1]; all 5 dose levels, minimal detectable plasma CC-99677 > 24 h after dosing",limited to no day-to-day plasma accumulation
same,Cmax,"[1]; oral, 150-mg dose level, read-out: Geometric mean Cmax expressed as molar concentration",~800 nM
same,Cmax,"[1]; day 1, 10 mg oral, read-out: Geometric mean peak concentration (Cmax, CV%)",20.5 ng/mL
same,Cmax,"[1]; day 1, 30 mg oral, read-out: Geometric mean peak concentration (Cmax, CV%)",63.4 ng/mL
same,Cmax,"[1]; day 1, 60 mg oral, read-out: Geometric mean peak concentration (Cmax, CV%)",150 ng/mL
same,Cmax,"[1]; day 1, 120 mg oral, read-out: Geometric mean peak concentration (Cmax, CV%)",269 ng/mL
same,Cmax,"[1]; day 1, 150 mg oral, read-out: Geometric mean peak concentration (Cmax, CV%)",257 ng/mL
same,Onset of reduction of TNF production,"[2]; 60-, 120-, and 150-mg dose cohorts",reduced as early as day 2
same,Maximal TNF inhibition (percentage change from baseline),[2]; 150-mg dose cohort,70%
same,TNF inhibition maintained during the dosing period,"[2]; 150-mg dose cohort, 14 days",approximately 70%
same,Maximal inhibition of IL-6,[2]; [6],50%
same,Maximal inhibition of MIP-1α,[2]; [6],50%
same,"TNF inhibition, ex vivo LPS-stimulated blood",[2]; all doses > 10 mg,"inhibited TNF at all doses > 10 mg, and this inhibition was sustained until day 14"
same,MIP-1α production,[2]; [7],inhibited with continuous dosing
same,MIP-1β production,[2]; [7],inhibited with continuous dosing
same,IL-6 expression,[3],inhibited
same,IL-17A expression,[3],inhibited
same,MCP-1 expression,[3],inhibited
same,TNF expression,[3],inhibited
same,"mRNA decay of TNF, IL-6, and IL-1β transcripts",[4],significantly greater mRNA decay compared with actinomycin D alone
same,"Inflammatory cytokine production including TNF, IL-6, and GM-CSF",LPS-stimulated PBMCs; LPS-stimulated healthy donor PBMCs,inhibits inflammatory cytokine production
same,IL-1β inhibition in PBMCs after LPS stimulation,LPS-stimulated PBMCs; PBMCs,no inhibition of IL-1β was observed
same,"Mean WBC, lymphocyte, monocyte, and neutrophil counts",[5],comparable to placebo
same,LPS-stimulated TNF production under continued daily treatment,THP-1 cells,suppressed TNF production throughout the treatment period
